Source: patent publication US5679680A, “α-substituted hydrazides having calpain inhibitory activity” (Warner-Lambert Company, priority 1995, dated 1997)

Test system: Purkinje cells in cerebellar slices
Assay: AMPA toxicity to Purkinje cells in cerebellar slices
Format: cell-based, rat
Settings: 100 μM compound
Description: (ii) Neuroprotective effects of the compound of Example 5 against AMPA toxicity to Purkinje cells in cerebellar Slices: Cerebellar slices were acutely isolated from adult rats and maintained in an oxygenated bath for the duration of the experiment as described elsewhere (Caner, et al., Brain Research 1993;607: 354-356). Example 5 (100 μM) was added to the ACSF (124 mM NaCl, 3.3 mM KCl, 2 mM CaCl2, 25.7 mM NaHCO3, 2.4 mM MgSO4, 1.25 mM KH2 PO4, 10 mM glucose) 60 minutes before the addition of amino-3-hydroxy-5-methyl-4-isoxazole propionic acid (AMPA; 30 μM for 30 minutes). The slices were then allowed to recover in normal ACSF for an additional 90 minutes. Histological damage to Purkinje cells was identified and quantified as described in detail elsewhere (Caner, et al., Brain Research 1993;607: 354-356).

Structure (SMILES): O=C(CCl)NN=c1[nH]c2ccccc2n(-c2ccccc2)c1=O [Example 5, 2-Chloro-acetic acid (3-oxo-4-phenyl-3,4-dihydro-1H-quinoxalin-2-ylidene)-hydrazide]
- AMPA-induced neurotoxicity (AMPA 30 μM): can be ameliorated
- viability at 100 µM (Rattus norvegicus, purkinje, 0.5 h, AMPA 30 μM for 30 minutes, mean ± SEM (10), p < 0.005 vs AMPA alone (13.41 ± 2.34), Control 94.41 ± 0.97, read-out: % Live Purkinje Neurons): 51 ± 4.8%
